A word on the CC50: it is the concentration giving 50% cytotoxicity. A word on the EC50: it is the concentration needed to bring the measured effect to its halfway point.

The text below walks through data of ChEMBL document CHEMBL1158450, “A small-molecule inhibitor of Nipah virus envelope protein-mediated membrane fusion” (J Med Chem, 2009).

Structures are written as SMILES. The source made the active and inactive calls. The calls are words filed in the database; no cut-off is given here.

The test system of data set [1] is Vero. The data set is described as follows: Cytotoxicity against african green monkey Vero cells at 10 to 200 uM after 16 hrs by MTT assay. The format is cell-based. The following applies: chlorocebus sabaeus. On the technique in general: Tetrazolium dyes change colour on reduction, which living cells bring about.
The target of data set [2] is T1, Glycoprotein G (Henipavirus nipahense) (UniProt Q9IH62).
T1 sequence (whole entry): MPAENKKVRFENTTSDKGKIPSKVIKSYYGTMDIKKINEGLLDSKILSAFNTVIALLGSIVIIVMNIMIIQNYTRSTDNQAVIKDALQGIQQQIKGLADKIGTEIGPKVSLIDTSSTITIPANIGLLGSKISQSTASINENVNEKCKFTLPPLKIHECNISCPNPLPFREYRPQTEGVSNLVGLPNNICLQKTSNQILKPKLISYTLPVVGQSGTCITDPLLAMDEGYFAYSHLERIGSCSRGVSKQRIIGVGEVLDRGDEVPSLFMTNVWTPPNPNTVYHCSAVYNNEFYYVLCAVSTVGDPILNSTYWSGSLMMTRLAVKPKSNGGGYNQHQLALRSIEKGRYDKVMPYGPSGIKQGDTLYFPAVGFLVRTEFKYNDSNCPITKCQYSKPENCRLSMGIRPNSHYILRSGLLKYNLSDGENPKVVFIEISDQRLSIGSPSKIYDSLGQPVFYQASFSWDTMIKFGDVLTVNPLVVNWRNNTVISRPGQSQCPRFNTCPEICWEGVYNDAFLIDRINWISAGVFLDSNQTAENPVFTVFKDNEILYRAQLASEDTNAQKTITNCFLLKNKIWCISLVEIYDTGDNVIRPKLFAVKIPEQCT
The format is cell-based. The following applies: Vero, 10 to 200 uM.

In data set [3] the test system is Vero. The format is cell-based. The following applies: Measles morbillivirus, 10 to 200 uM.
Data set [4] in a line: (§1) Cytotoxicity against african green monkey Vero cells after 16 hrs by MTT assay. The class given is cell-based, Chlorocebus sabaeus. As to conditions: chlorocebus sabaeus, Vero cells.
A short description of data set [5]: Selectivity index, CC50 for african green monkey Vero cells to EC50 for Measles virus hemagglutininin/F-mediated cell-cell fusion. The class given is toxicity, cell-based. As to conditions: read-out: Ratio CC50/EC50.
Data set [6] has as its system Nipah virus. Nature of the data set: Inhibition of Nipah virus-mediated cell fusion infected in african green monkey Vero cells assessed as reduction in virus-induced syncytium formation after 24 hrs relative to control. The class given is functional, organism-based. As to conditions: Henipavirus nipahense.
The test system of data set [7] is Vero. The description is as §1. The format is cell-based, Chlorocebus sabaeus. The following applies: Chlorocebus sabaeus, Vero, 16 h.
Data set [8] concerns the target T2, Glycoprotein G (Henipavirus nipahense, UniProt Q9IH62).
T2 sequence (Q9IH62 whole entry): T1 sequence (whole entry)
The class given is cell-based. The following applies: vero.

`NC(=O)C1CCN(c2cc3c(cc2F)c(=O)c(C(=O)O)cn3C2CC2)CC1`: the Activity result in data set [1] is given as “Not Active”. Further, the outcome in data set [2] and in data set [3] was inactive.
In data set [4], `CCn1cc(C(=O)NCc2ccc(Cl)cc2)c(=O)c2ccc(C(F)(F)F)cc21` showed a half-maximal cytotoxic concentration (CC50) at 16 h of more than 20 µM. For the same compound, the selectivity ratio in data set [5] is more than 10.
In data set [4], `CCOC(=O)N1CCN(c2cc3c(cc2F)c(=O)c(C(=O)NCc2ccc(Cl)cc2Cl)cn3C2CC2)CC1` returned a CC50 at 16 h of 15 µM.
Regarding `NC(=O)C1CCN(c2cc3c(cc2F)c(=O)c(C(=O)NCc2ccc(Cl)cc2Cl)cn3C2CC2)CC1`, the half-maximal cytotoxic concentration (CC50) at 16 h in data set [4] is more than 20 µM. Besides, the Activity entry in data set [6] is “Dose-dependent effect”.
On to `CCn1cc(C(=O)NCc2ccc(N)cc2)c(=O)c2cc(F)ccc21`, for which the Activity entry in data set [1] is “Not Active”. The outcome in data set [2] and in data set [3] was inactive.
As to `Nc1ccc2oc(Cc3ccccc3)nc2c1`, in data set [7], the EC50 stood at 8 µM. In data set [5], the selectivity ratio stood at 20. Also, in data set [6], the Activity result is “Dose-dependent effect”.
For `CCn1cc(C(=O)NCC2CC2)c(=O)c2cc(F)ccc21`, the Activity entry in data set [1] is on record as “Not Active”. For the same compound, the outcome in data set [2] and in data set [3] was inactive.
Regarding `CCn1cc(C(=O)NCC2CC2)c(=O)c2cc(C(F)(F)F)ccc21`, in data set [1], the Activity result is listed as “Not Active”. The result in data set [2] and in data set [3] was inactive.
Consider `CCn1cc(C(=O)Nc2ccccc2CO)c(=O)c2ccc(C(F)(F)F)cc21`, for which the Activity entry in data set [1] is on record as “Not Active”. Also, the outcome in data set [2] and in data set [3] was inactive.
As for `CCOC(=O)C1CCN(c2cc3c(cc2F)c(=O)c(C(=O)O)cn3CC)CC1`, the Activity result in data set [1] is “Not Active”. Besides, the outcome in data set [2] and in data set [3] was inactive.
The compound `CCn1cc(C(=O)Nc2ccc(F)c(Cl)c2)c(=O)c2ccc(C(F)(F)F)cc21` yielded a CC50 at 16 h in data set [4] of more than 20 µM. For the same compound, the EC50 entry in data set [8] is given as “Not Active”.
With `CCn1cc(C(=O)NCc2ccc(OC)cc2)c(=O)c2cc(F)c(Cl)cc21`, the Activity result in data set [1] is recorded as “Not Active”. The outcome in data set [2] and in data set [3] was inactive.
With `CCn1cc(C(=O)NCc2ccc(N)cc2)c(=O)c2cc(C(F)(F)F)ccc21`, in data set [1], the Activity result is “Not Active”. In addition, the outcome in data set [2] and in data set [3] was inactive.
With `CCn1cc(C(=O)NCc2ccc(OC)cc2)c(=O)c2cc(C(F)(F)F)ccc21`, the Activity entry in data set [1] was “Not Active”. Also, the result in data set [2] and in data set [3] was inactive.
On to `CCn1cc(C(=O)NCc2ccccn2)c(=O)c2cc(F)ccc21`, for which, in data set [1], the Activity entry is “Not Active”. The result in data set [2] and in data set [3] was inactive.
Regarding `CCOC(=O)C1CCN(c2cc3c(cc2F)c(=O)c(C(=O)NCc2ccc(Cl)cc2Cl)cn3CC)CC1`, in data set [4], the 50% cytotoxic concentration (CC50) at 16 h came to 10 µM. The Activity result in data set [6] is “Dose-dependent effect”.
Consider `CCn1cc(C(=O)NCc2ccccn2)c(=O)c2cc(C(F)(F)F)ccc21`, for which the Activity entry in data set [1] is on record as “Not Active”. Besides, the outcome in data set [2] and in data set [3] was inactive.
`CCOC(=O)N1CCN(c2cc3c(cc2F)c(=O)c(C(=O)NCc2ccc(Cl)cc2Cl)cn3CC)CC1`: the 50% cytotoxic concentration (CC50) at 16 h in data set [4] is more than 20 µM.
Still for that read-out and setting: for `C=CCN1[C@@H](c2ccc([N+](=O)[O-])cc2)C(C(=O)OCC)=C(O)C(C(=O)OCC)[C@@H]1c1ccc([N+](=O)[O-])cc1` (some centres not stated) the value was more than 20 µM.
